Results taken from the Kinase Knowledgebase extract (Sharma et al. 2016).

Tests used:
[1] = biological target: MAPK14 (UniProt Q16539); test: In vitro Inhibition of MAPK14 Kinase Activity
[2] = system: MAPK14 (BALB/cJ mice); test: In vivo Inhibition of LPS-induced TNF-alpha Production; conditions: dose or concentration not given here
[3] = biological target: MAPK14 (human) (UniProt Q16539); test: In vitro Inhibition of TNF-alpha Production in PBMC Cells
Chain of MAPK14 (human) (Q16539 whole entry, looked up): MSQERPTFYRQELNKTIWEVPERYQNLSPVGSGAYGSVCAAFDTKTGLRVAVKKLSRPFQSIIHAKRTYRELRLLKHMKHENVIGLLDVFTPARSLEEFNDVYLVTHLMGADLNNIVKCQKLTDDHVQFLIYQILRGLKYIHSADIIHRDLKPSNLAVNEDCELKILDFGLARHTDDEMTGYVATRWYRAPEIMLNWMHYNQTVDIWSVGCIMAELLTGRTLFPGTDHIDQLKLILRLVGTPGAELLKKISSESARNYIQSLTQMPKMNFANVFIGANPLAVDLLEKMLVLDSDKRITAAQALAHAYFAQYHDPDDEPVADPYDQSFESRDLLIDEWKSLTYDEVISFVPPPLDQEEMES

Chain of MAPK14 (Q16539 whole entry, looked up): as above

Cn1c(N2CCCC2)c(-c2ccncc2)c(-c2ccc(F)cc2)c1C(C)(C)O
IC50 [1]: 2 µM
inhibition [2]: 37.7%
IC50 [3]: 192 nM

COC(=O)c1c(-c2ccc(F)cc2)c(-c2ccncc2)c(N2CCOCC2)n1C
IC50 [1]: 10 µM
inhibition [2]: -41%
IC50 [3]: 47 nM

COC(=O)c1c(-c2ccc(F)cc2)c(-c2ccncc2)c(N)n1C
IC50 [1]: 10 µM
inhibition [2]: 53.9%
IC50 [3]: 51 nM

Cn1c(C(=O)C2CC2)c(-c2ccc(F)cc2)c(-c2ccncc2)c1N1CCN(C(=O)C2CC2)CC1
IC50 [1]: 10 µM
IC50 [3]: 36 nM

COC(=O)c1c(-c2ccc(F)cc2)c(-c2ccncc2)c(N2CCCC2)n1C
IC50 [1]: 10 µM
inhibition [2]: -38%
IC50 [3]: 17 nM

Fc1ccc(-c2c[nH]c(CN3CCc4ccccc4C3)c2-c2ccncc2)cc1
IC50 [1]: 2 µM
inhibition [2]: 63%
IC50 [3]: 40 nM

CN1CCN(c2c(-c3ccncc3)c(-c3ccc(F)cc3)c(C#N)n2C)CC1
IC50 [1]: 2 µM
inhibition [2]: 47%
IC50 [3]: 80 nM

COC(=O)c1c(-c2ccc(F)cc2)c(-c2ccncc2)c(N2CCN(C)CC2)n1C
IC50 [1]: 2 µM
inhibition [2]: 89%
IC50 [3]: 95 nM

CCCc1[nH]cc(-c2ccc(F)cc2)c1-c1ccnc(N[C@@H](C)COC)n1
inhibition [2]: -35%
IC50 [3]: 86 nM

CCOC(=O)c1c(-c2ccc(C)cc2)c(-c2ccncc2)c(N2CCNCC2)n1C
inhibition [2]: 79%
IC50 [3]: 60 nM

O=C1CCCn2c(NCCN3CCOCC3)c(-c3ccncc3)c(-c3ccc(F)cc3)c21
inhibition [2]: 51%
IC50 [3]: 2560 nM

CCOC(=O)c1[nH]cc(-c2ccncc2)c1-c1cccc(C(F)(F)F)c1
inhibition [2]: -8%
IC50 [3]: 96 nM

CCCc1c(-c2ccnc(N[C@@H](C)COC)n2)c(-c2ccc(F)cc2)cn1CCN1CCOCC1
inhibition [2]: -1%
IC50 [3]: 1 nM

COC(=O)c1c(-c2ccc(F)cc2)c(-c2ccncc2)c(Nc2ccc(N(C)C)cc2)n1C
IC50 [1]: > 10 µM
inhibition [2]: 15%
IC50 [3]: 118 nM

COC(=O)c1c(-c2ccc(F)cc2)c(-c2ccncc2)c(N=C(c2ccccc2)c2ccccc2)n1C
inhibition [2]: -49%
IC50 [3]: 52 nM

COC(=O)c1c(-c2ccc(F)cc2)c(-c2ccncc2)c(N2CCN(C3CCCC3)CC2)n1C
inhibition [2]: 48.6%
IC50 [3]: 139 nM

CCNC(=O)c1[nH]cc(-c2ccc(F)cc2)c1-c1ccncc1
inhibition [2]: -24%
IC50 [3]: 209 nM

CCn1cc(-c2ccncc2)c(-c2ccc(F)cc2)c1C(=O)OC
inhibition [2]: 53%
IC50 [3]: 108 nM

COC(=O)c1c(-c2ccc(F)cc2)c(-c2ccncc2)c(NCc2cccc(OC)c2)n1C
inhibition [2]: 63%
IC50 [3]: 407 nM

Fc1ccc(-c2c[nH]c(CN3CCNCC3)c2-c2ccncc2)cc1
inhibition [2]: -41%
IC50 [3]: 63 nM

COC(=O)c1c(-c2ccc(F)cc2)c(-c2ccncc2)c(C2=CCNCC2)n1C
inhibition [2]: 96%
IC50 [3]: 72 nM

Cn1c(C#N)c(-c2ccc(F)cc2)c(-c2ccncc2)c1N1CCNCC1
inhibition [2]: 67%
IC50 [3]: 18 nM

COC(=O)c1c(-c2ccc(F)cc2)c(-c2ccncc2)c(Nc2ccc(N3CCOCC3)cc2)n1C
inhibition [2]: 29%
IC50 [3]: 1560 nM

COC(=O)c1c(-c2ccc(F)cc2)c(-c2ccncc2)c(C#CCN2CCN(C)CC2)n1C
inhibition [2]: 57%
IC50 [3]: 7.7 nM

CCOC(=O)N1CCN(c2c(-c3ccncc3)c(-c3ccc(F)cc3)c(C(=O)OC)n2C)CC1
inhibition [2]: 8%
IC50 [3]: 30 nM

CC(=O)c1c(-c2ccc(F)cc2)c(-c2ccncc2)c(N2CCN(C(C)=O)CC2)n1C
IC50 [1]: 2 µM
IC50 [3]: 43 nM

Cn1c(C(=O)OC(C)(C)C)c(-c2ccc(F)cc2)c(-c2ccncc2)c1N1CCNCC1
inhibition [2]: 25%
IC50 [3]: 420 nM

Cn1cc(-c2ccncc2)c(-c2ccc(F)cc2)c1CNC(=O)Nc1ccccc1
inhibition [2]: 82%
IC50 [3]: 27 nM

COC(=O)c1c(-c2ccncc2)c(-c2ccc(F)cc2)c(NCCc2ccccc2)n1C
inhibition [2]: 58%
IC50 [3]: 1020 nM

CN(Cc1ccccc1)Cc1[nH]cc(-c2ccc(F)cc2)c1-c1ccncc1
inhibition [2]: 37%
IC50 [3]: 91 nM

CCOC(=O)c1c(-c2cc(F)cc(F)c2)c(-c2ccncc2)c(N2CCNCC2)n1C
inhibition [2]: 75%
IC50 [3]: 93 nM

COC(=O)CN1CCN(c2c(-c3ccncc3)c(-c3ccc(F)cc3)c(C(=O)OC)n2C)CC1
inhibition [2]: 26%
IC50 [3]: 5 nM

COC(=O)c1c(-c2ccc(F)cc2)c(-c2ccncc2)c(-c2cccc(NC(C)=O)c2)n1C
inhibition [2]: 59%
IC50 [3]: 2 nM

CNC(=O)c1c(-c2ccc(F)cc2)c(-c2ccncc2)c(Br)n1C
inhibition [2]: 53%
IC50 [3]: 543 nM

CON(C)C(=O)c1c(-c2ccc(F)cc2)c(-c2ccncc2)c(N2CCN(C(=O)OC(C)(C)C)CC2)n1C
inhibition [2]: 45%
IC50 [3]: 72 nM

CCOC(=O)c1c(-c2cc(F)cc(F)c2)c(-c2ccncc2)c(Br)n1C
IC50 [1]: > 10 µM
inhibition [2]: -36%
IC50 [3]: 2720 nM

COC(=O)c1c(-c2ccncc2)c(-c2ccc(F)cc2)c(NCCN2CCOCC2)n1C
inhibition [2]: 91%
IC50 [3]: 10000 nM
